# Target: Gag-Pol polyprotein (Human immunodeficiency virus type 1 group M subtype B (isolate HXB2)) (UniProt P04585)
# Test: concentration-response of HIV-1 RNase H blockers – biochemical, probe assessment, dose response (AID 652)
# Conditions: HIV-1 RT RNase H enzymatic assay, inhibition, at 50 µM, stronger effect = higher value
row,Structure (SMILES),inhibition [%]
1,O=C(Cn1c(=O)oc2cc(S(=O)(=O)N3CCCC3)ccc21)NC1CCCc2ccccc21 (stereo unspecified),58.8
2,CCOC(=O)c1c(C)[nH]c(C(=O)CSc2nc3ccccc3o2)c1C,93.7
3,CCn1c2ccccc2c2nc3cc(S(=O)(=O)N4CCOCC4)ccc3nc21,88.9
4,C=CCNC(=O)c1c(N)n(-c2ccc3c(c2)OCO3)c2nc3ccccc3nc12,55.2
5,Fc1ccccc1CSc1nc2ncccc2[nH]1,57.7
6,COc1ccc(C2C(C#N)=C(N)N3C(=C2C#N)Sc2ccccc23)cc1 (stereo unspecified),92
7,Fc1ccc(-c2ccc(-c3nn4c(-c5ccco5)nnc4s3)o2)cc1,88
8,c1csc(-c2nn3c(C4COc5ccccc5O4)nnc3s2)c1 (stereo unspecified),97.1
9,O=c1cc(CN2CCN(c3ccccc3)CC2)c2cc(O)c(-c3ccccc3)cc2o1,96.1
10,Cc1cc(NC(=O)CSc2nc(C3CC3)nc3sc4c(c23)CCC(C)C4)no1 (stereo unspecified),94.1
11,O=S(=O)(/N=S1/CC=CCN1S(=O)(=O)c1ccccc1)c1ccccc1 (stereo unspecified),69
12,COc1ccc(C(=S)N(C)C)cc1OC,78.6
13,COc1cc(-c2nn3c(Cc4ccccc4)nnc3s2)cc(OC)c1OC,86
14,O=C(COc1ccc(Cl)cc1)Nc1nnc(-c2ccc3c(c2)CCCC3)o1,83.7
15,Cc1cc(C)c(NC(=O)Cn2c(=O)n(Cc3ccco3)c(=O)c3ccccc32)c(C)c1,76.8
16,CCC1CC2(C)NC(=O)c3c(sc4c3CC(C)(C)OC4)N2C1=O (stereo unspecified),82.8
17,CCCc1cc(C(=O)Nc2sc3c(c2C#N)CCC3)no1,92.6
18,CCc1ccccc1N1CSC2=C(C#N)C(c3cc(OC)c(OC)cc3OC)CC(=O)N2C1 (stereo unspecified),98.3
19,CCOc1cc(C2C(C#N)=C(N)SC(N)=C2C#N)ccc1OCCN1CCOCC1,41.5
20,Cc1cccc(-n2c(N)c(C(=O)N3CCN(C)CC3)sc2=S)c1,41.7
21,Cc1noc(C)c1CSc1nc2cc(S(=O)(=O)N3CCOCC3)ccc2o1,88.3
22,CN(c1ccccc1)c1ccc(/C=c2\s/c(=C(/C#N)C(=O)C(C)(C)C)n(Cc3ccco3)c2=O)cc1,92.9
23,CCn1cc(C(=O)NCc2ccco2)c(=O)c2cc(S(=O)(=O)N3CCc4ccccc4C3)ccc21,76.8

row,Structure (SMILES),inhibition [%]
1,COC(=O)c1cccc(N2C(=O)C(Cl)=C(N3CCOCC3)C2=O)c1,29.2
2,CCc1ccccc1N1CSC2=C(C#N)C(c3ccccc3F)CC(=O)N2C1 (stereo unspecified),98.5
3,O=C(NC1CCS(=O)(=O)C1)c1c(NC(=O)C2COc3ccccc3O2)sc2c1CCCC2 (stereo unspecified),88.4
4,CCOC(=O)C1=C(C)N=c2s/c(=C3\C(=O)Nc4ccccc43)c(=O)n2C1c1ccc2c(c1)OCO2 (stereo unspecified),83.8
5,N#Cc1nc(-c2ccc(OCc3ccc(Cl)cc3)cc2)oc1NCc1cccnc1,99.4
6,COc1ccc(OC)c(CCNC(=O)Cn2sc3nc(C)cc(C)c3c2=O)c1,91.6
7,O=C(NCc1ccco1)c1cccnc1-c1nc2ccccc2s1,93.7
8,Cc1cc(C)c2c(=O)n(CC(=O)NCCCN3CCOCC3)sc2n1,80.5
9,COc1ccc(N2CCN(Cc3cc(=O)oc4cc(-c5ccccc5)c(O)cc34)CC2)cc1,96.2
10,C=CCn1c(=O)c(C(=O)Nc2nnc(C)s2)c(O)c2ccccc21,84.5
11,Nc1c(C(=O)N2CCCCC2)sc(=S)n1-c1ccccc1,83.2
12,C=CCn1c(SCC(=O)NC(=O)NCc2ccco2)nc2sc(C)c(C)c2c1=O,83.8
13,CCOc1cc(C2CC(=O)N3CN(C4CCCCC4)CSC3=C2C#N)ccc1O (stereo unspecified),85.6
14,O=C(COc1ccc(Br)cc1)Nc1ccc(-c2nnc(-c3ccco3)o2)cc1,95.1
15,Clc1ccccc1-c1nn2c(-c3ccncc3)nnc2s1,79.3
16,COc1ccc(CCNC(=O)c2c(O)c3cccc4c3n(c2=O)CC4)cc1,67.1
17,c1ccc(Cc2nn3c(Cn4cnc5ccccc54)nnc3s2)cc1,91.2
18,Cc1cc(C)cc(OCC(=O)Nc2nonc2NC(=O)COc2cc(C)cc(C)c2)c1,88
19,CN(C)c1ccc2c(c1)N=C(c1ccco1)OP2(=S)N1CCOCC1 (stereo unspecified),92.9
20,O=C(Nc1ccc2nc(-c3ccco3)c(-c3ccco3)nc2c1)N1CCCCCC1,97
21,N#Cc1c(NC(=O)CN2CCN(S(=O)(=O)c3ccc4c(c3)OCCO4)CC2)sc2c1CCC2,81.9
22,CC(C)Cc1cc(C(=O)Nc2sc3c(c2C#N)CCCC3)no1,94.6
23,CCn1c(SCC(=O)c2ccc(O)c(O)c2)nnc1-c1ccccc1OC,98.4

# — PubChem BioAssay AID652 (University of Pittsburgh Molecular Library Screening Center, 2007)
